Assay results reported in US4174404A, “Deoxynarasin antibiotics” (Eli Lilly and Company, priority 1978, dated 1979).
Converted amounts (≈) assume the structure as drawn. Structures can show the parent of a compound that is named as a salt.

Assays:
[1] = tested on: rumen flora; assay: in vitro rumen volatile-fatty-acid (VFA) test; parameters: species or system ruminants
Excerpt: As discussed, efficiency of carbohydrate utilization in ruminants is increased by treatments which stimulate the animal's rumen flora to produce propionate compounds rather than acetate or butyrate compounds. The efficiency of feed use can be monitored by observing the production and concentration of propionate compounds in rumen fluid, using methods as described in U.S. Pat. No. 4,038,384.
Results of in vitro tests with 20-deoxynarasin (Na salt) and 20-deoxy-epi-17-narasin (free acid), showing the ratio of volatile-fatty-acid (VFA) concentrations in treated flasks to concentrations in control flasks, are shown in Table VIII.

[2] = stability in alcohols; type: physicochemical; settings: converts to 20-deoxy-epi-17-narasin free acid (methanol, room temperature, four hours)
Description: (§1) For example, 20-deoxynarasin acid (435.1 mg) was dissolved in methanol (40 ml) and allowed to stand at room temperature for four hours. The solution was then evaporated to dryness under vacuum; the residue was redissolved in dioxane and lyophilized to give 417.8 mg of 20-deoxy-epi-17-narasin acid.

[3] = solubility; type: physicochemical; settings: for solubility in nonpolar organic solvents: nonpolar organic solvents such as hexane; for solubility in organic solvents: organic solvents (methanol, ethanol, dimethylformamide, dimethyl sulfoxide, ethyl acetate, chloroform, acetone, benzene)
Excerpt: The deoxynarasin antibiotic complex comprises 20-deoxynarasin and 20-deoxy-epi-17-narasin which are obtained from the fermentation as a mixture. 20-Deoxynarasin and 20-deoxy-epi-17-narasin are separated from the deoxynarasin complex and isolated as individual compounds as hereinafter described. The deoxynarasin complex also contains minor factors which are removed by the procedures described. The deoxynarasin antibiotic complex is soluble in most organic solvents, but is insoluble in water.
as §1

[4] = tested on: Eimeria tenella; assay: feeding experiment in young chickens challenged with Eimeria tenella; type: in vivo; settings: 100 ppm in the diet, chicks challenged with Eimeria tenella, Na salt
Excerpt: A feeding experiment in young chickens confirms that the deoxynarasin antibiotics have anticoccidial activity in vivo.

[5] = target: cation transport ATPase in liver mitochondria; assay: in vitro ATPase inhibition; type: biochemical
Excerpt: In yet another aspect, 20-deoxynarasin and its salts are active as an inhibitor of the enzyme ATPase. ATPase, an alkali-metal-sensitive enzyme found in cell membranes, is involved in the energy necessary for active transport. "Active transport" refers to the energy-requiring series of operations whereby intracellular and extracellular fluids maintain their compositions. Inhibitors of ATPase reduce the energy required for active transport. In vitro tests have shown that 20-deoxynarasin (Na salt) inhibits cation transport ATPase in liver mitochondria at a half effective concentration of 0.065 mcg/ml.

[6] = tested on: mice; assay: acute toxicity, intraperitoneal, mice; type: in vivo; settings: intraperitoneally to mice
[7] = tested on: Eimeria tenella; assay: in vitro anticoccidial activity; type: cell-based
Excerpt: Anticoccidial activity is an important property of the deoxynarasin antibiotics of this invention.

[8] = tested on: isolated guinea-pig atria; assay: isolated guinea-pig atria contractility; type: cell-based; settings: Cavia porcellus; 10^-5 molar; percentage of maximal contractile tension elicited by norepinephrine challenge; n=4; read-out: mean (± standard error) increase in contractile tension
Excerpt: 20-Deoxynarasin and its salts are also potential cardiotonic agents. In tests using isolated guinea-pig atria, for example, 20-deoxynarasin increased cardiac contractility. Response to this test is expressed as a percentage of the maximal contractile tension that could be elicited by a challenge dose of norepinephrine (10^-4)M). 20-Deoxynarasin (Na salt), at a 10^-5 molar concentration, produced a mean (± standard error) increase in contractile tension of 43.8±1.4 (n=4) percent. For a more detailed description of this test, see U.S. Pat. No. 3,985,893.

[9] = tested on: Peptostreptococcus anaerobius 1428; assay: agar-dilution MIC, anaerobic bacteria; type: cell-based; settings: 24-hour incubation
Description: (§2) In one aspect, the deoxynarasin antibiotics inhibit the growth of anaerobic bacteria. The minimal inhibitory concentrations (MIC) at which 20-deoxy-epi-17-narasin (free acid) inhibits various anaerobic bacteria, determined by standard agar-dilution assay, are summarized in Table V. End points were read after 24-hour incubation period.

[10] = tested on: Propionibacterium acnes 79; assay: agar-dilution MIC, anaerobic bacteria; type: cell-based; settings: Cutibacterium acnes, 24-hour incubation
Description: as §2

[11] = tested on: Clostridium septicum 1128; assay: agar-dilution MIC, anaerobic bacteria; type: cell-based; settings: 24-hour incubation
Description: as §2

[12] = tested on: Peptococcus prevoti 1281; assay: agar-dilution MIC, anaerobic bacteria; type: cell-based; settings: 24-hour incubation
Description: as §2

[13] = tested on: Actinomyces israelii W855; assay: agar-dilution MIC, anaerobic bacteria; type: cell-based; settings: 24-hour incubation
Description: as §2

[14] = tested on: Eubacterium aerofaciens 1235; assay: agar-dilution MIC, anaerobic bacteria; type: cell-based; settings: Collinsella aerofaciens, 24-hour incubation
Description: as §2

[15] = tested on: Bacteroides fragilis 111; assay: agar-dilution MIC, anaerobic bacteria; type: cell-based; settings: 24-hour incubation
Description: as §2

[16] = tested on: Peptococcus asaccharolyticus 1302; assay: agar-dilution MIC, anaerobic bacteria; type: cell-based; settings: Peptoniphilus asaccharolyticus, 24-hour incubation
Description: as §2

[17] = tested on: Peptostreptococcus intermedius 1264; assay: agar-dilution MIC, anaerobic bacteria; type: cell-based; settings: 24-hour incubation
Description: as §2

[18] = tested on: rhinovirus type 3; assay: in vitro plaque suppression test; type: cell-based; settings: rhinovirus type 3, in vitro
Excerpt: (§3) The deoxynarasin antibiotics are also antiviral agents.

[19] = tested on: herpesvirus; assay: in vitro plaque suppression test; type: cell-based
Excerpt: as §3

[20] = tested on: influenza A virus; assay: in vitro plaque suppression test; type: cell-based
Excerpt: as §3

[21] = tested on: vacinnia virus; assay: in vitro plaque suppression test; type: cell-based
Excerpt: as §3

[22] = tested on: M. synoviae; assay: in vitro broth-dilution MIC, Mycoplasma; type: cell-based; settings: Mycoplasmopsis synoviae
Excerpt: (§4) Activity against Mycoplasma is another useful aspect of the antimicrobial activity of the deoxynarasin antibiotics. Mycoplasma species, also known as pleuropneumonia-like (PPLO) organisms, are pathogenic to man and various animals. Agents active against PPLO organisms are especially needed by the poultry industry. The minimal inhibitory concentrations (MIC) of 20-deoxy-epi-17-narasin (free acid) against illustrative Mycoplasma species, as determined by in vitro broth-dilution studies, are summarized in Table VI.

[23] = tested on: M. hyorhinis; assay: in vitro broth-dilution MIC, Mycoplasma; type: cell-based; settings: Mesomycoplasma hyorhinis
Excerpt: as §4

[24] = tested on: M. gallisepticum; assay: in vitro broth-dilution MIC, Mycoplasma; type: cell-based; settings: Mycoplasmoides gallisepticum
Excerpt: as §4

[25] = tested on: Clostridium perfringens 81; assay: microbe, parasite or virus in culture; type: cell-based; settings: Clostridium perfringens, 81, 24 h
[26] = tested on: Staphylococcus aureus 3130 (Methicillin Resistant); assay: disc-diffusion method, zone of inhibition; type: cell-based
Excerpt: (§5) The deoxynarasin antibiotics of this invention are antibacterial agents. For example, the relative microbiological activity of 20-deoxy-epi-17-narasin (free acid) is described in Table IV. The conventional disc-diffusion method was used.

[27] = tested on: Staphlococcus aureus 3055; assay: disc-diffusion method, zone of inhibition; type: cell-based
Excerpt: as §5

[28] = tested on: Streptococcus pyogenes (Group A); assay: disc-diffusion method, zone of inhibition; type: cell-based
Excerpt: as §5

[29] = tested on: Streptococcus sp. (Group D); assay: disc-diffusion method, zone of inhibition; type: cell-based
Excerpt: as §5

[30] = tested on: Diplococcus pneumoniae; assay: disc-diffusion method, zone of inhibition; type: cell-based; settings: Streptococcus pneumoniae
Excerpt: as §5

[31] = tested on: Staphylococcus aureus 3074 (Penicillin G Resistant); assay: disc-diffusion method, zone of inhibition; type: cell-based
Excerpt: as §5

With `CCC(C(=O)O)C1OC(C(C)C(O)C(C)C(=O)C(CC)C2OC3(C=CCC4(CCC(C)(C5CCC(O)(CC)C(C)O5)O4)O3)C(C)CC2C)C(C)CC1C` (stereo not drawn) [20-deoxynarasin, 20-Deoxynarasin] the “Ratio of Treated to Control, Molar % acetate” value (from here on “Ratio … Molar % acetate”) ([1]; dose 0.1 mcg/ml) was 0.9504, the “Ratio of Treated to Control, Molar % butyrate” value (“Ratio … Molar % butyrate” below) ([1]; dose 0.1 mcg/ml) was 0.6870 and the “Ratio of Treated to Control, Molar % propionate” value (“Ratio … Molar % propionate” below) ([1]; dose 0.1 mcg/ml) was 1.2148. For the same molecule, the “Ratio of Treated to Control, Total VFA” value ([1]; dose 0.1 mcg/ml) was 1.1892, the “Ratio … Molar % acetate” value ([1]; dose 0.3 mcg/ml) was 0.9084 and the “Ratio … Molar % butyrate” value ([1]; dose 0.3 mcg/ml) was 0.4582. For the same molecule, the “Ratio … Molar % propionate” value ([1]; dose 0.3 mcg/ml) was 1.3799, the “Ratio of Treated to Control, Total VFA” value ([1]; dose 0.3 mcg/ml) was 1.1829 and the “Ratio … Molar % acetate” value ([1]; dose 1 mcg/ml) was 0.8727. The “Ratio … Molar % butyrate” value ([1]; dose 1 mcg/ml) was 0.3942, the “Ratio … Molar % propionate” value ([1]; dose 1 mcg/ml) was 1.4597 and the “Ratio of Treated to Control, Total VFA” value ([1]; dose 1 mcg/ml) was 1.2096. For the same molecule, the stability in alcohols [2] was “unstable”, the “solubility in nonpolar organic solvents” value [3] was “only slightly soluble” and the “solubility in organic solvents” value [3] was “soluble”. For the same molecule, the solubility in water [3] was “insoluble”, the “% Mortality” value [4] was 0% and the “Weight Gain” value [4] was 185 g. For the same molecule, the “Lesion Score” value ([4]; maximum possible score = 4.00) was 0.13.

With `CCC(C(=O)O)C1OC(C(C)C(O)C(C)C(=O)C(CC)C2OC3(C=CCC4(CCC(C)(C5CCC(O)(CC)C(C)O5)O4)O3)C(C)CC2C)C(C)CC1C` (stereo not drawn) [20-deoxynarasin (Na salt)] the “half effective concentration, inhibition of cation transport ATPase” value [5] was 0.065 µg/mL, the “acute toxicity LD50” value [6] was 5 mg/kg and the minimal effective concentration ([7]; Eimeria tenella, read-out: level at which active against Eimeria tenella (as low as)) was 0.2 µg/mL. For the same molecule, the activation at 10 µM [8] was 43.8 ± 1.4%.

For `CCC(C(=O)O)C1OC(C(C)C(O)C(C)C(=O)C(CC)C2OC3(C=CCC4(CCC(C)(C5CCC(O)(CC)C(C)O5)O4)O3)C(C)CC2C)C(C)CC1C` (stereo not drawn) [20-deoxy-epi-17-narasin], the “Ratio … Molar % acetate” value ([1]; dose 2 mcg/ml) was 0.9581, the “Ratio … Molar % butyrate” value ([1]; dose 2 mcg/ml) was 0.9414 and the “Ratio … Molar % propionate” value ([1]; dose 2 mcg/ml) was 1.0858. For the same molecule, the “Ratio of Treated to Control, Total VFA” value ([1]; dose 2 mcg/ml) was 1.0717, the “Ratio … Molar % acetate” value ([1]; dose 5 mcg/ml) was 0.9237 and the “Ratio … Molar % butyrate” value ([1]; dose 5 mcg/ml) was 0.8201. For the same molecule, the “Ratio … Molar % propionate” value ([1]; dose 5 mcg/ml) was 1.1836, the “Ratio of Treated to Control, Total VFA” value ([1]; dose 5 mcg/ml) was 1.0487 and the “Ratio … Molar % acetate” value ([1]; dose 10 mcg/ml) was 0.9093. For the same molecule, the “Ratio … Molar % butyrate” value ([1]; dose 10 mcg/ml) was 0.6560, the “Ratio … Molar % propionate” value ([1]; dose 10 mcg/ml) was 1.2665 and the “Ratio of Treated to Control, Total VFA” value ([1]; dose 10 mcg/ml) was 1.0325. For the same molecule, the MIC [9] was 4 µg/mL (≈ 5.34 µM), the MIC [10] was 2 µg/mL (≈ 2.67 µM) and the MIC [11] was 16 µg/mL (≈ 21.4 µM). The MIC [12] was 4 µg/mL (≈ 5.34 µM), the MIC [13] was 8 µg/mL (≈ 10.7 µM) and the MIC [14] was 16 µg/mL (≈ 21.4 µM). For the same molecule, the MIC [15] was over 128 µg/mL, the MIC [16] was 8 µg/mL (≈ 10.7 µM) and the MIC [17] was 4 µg/mL (≈ 5.34 µM). The “antiviral activity (plaque suppression)” value [18] was “active”, the “antiviral activity (plaque suppression)” value [19] was “active” and the “antiviral activity (plaque suppression)” value [20] was “active”. The “antiviral activity (plaque suppression)” value [21] was “active”, the “acute toxicity LD50” value [6] was 201 mg/kg and the “level at which active against Eimeria tenella (as low as)” value [7] was 0.2 ppm. The MIC [22] was 50 µg/mL (≈ 66.8 µM), the MIC [23] was 50 µg/mL (≈ 66.8 µM) and the MIC [24] was 25 µg/mL (≈ 33.4 µM). For the same molecule, the MIC [25] was 16 µg/mL (≈ 21.4 µM), the “solubility in nonpolar organic solvents” value [3] was “only slightly soluble” and the “solubility in organic solvents” value [3] was “soluble”. For the same molecule, the solubility in water [3] was “insoluble”, the zone of inhibition at 30 µg/disc ([26]; 30 mcg/disc) was 17.2 mm and the zone of inhibition at 300 µg/disc ([26]; 300 mcg/disc) was 19 mm. For the same molecule, the zone of inhibition at 30 µg/disc ([27]; 30 mcg/disc) was 13.8 mm, the zone of inhibition at 300 µg/disc ([27]; 300 mcg/disc) was 16.9 mm and the zone of inhibition at 30 µg/disc ([28]; 30 mcg/disc) was 10 mm. For the same molecule, the zone of inhibition at 300 µg/disc ([28]; 300 mcg/disc) was 12 mm, the zone of inhibition at 30 µg/disc ([29]; 30 mcg/disc) was 14.6 mm and the zone of inhibition at 300 µg/disc ([29]; 300 mcg/disc) was 17 mm. It also gave a zone of inhibition at 30 µg/disc ([30]; 30 mcg/disc) of 13 mm, a zone of inhibition at 300 µg/disc ([30]; 300 mcg/disc) of 16 mm and a zone of inhibition at 30 µg/disc ([31]; 30 mcg/disc) of 15.4 mm. For the same molecule, the zone of inhibition at 300 µg/disc ([31]; 300 mcg/disc) was 19.5 mm.
